The values below come from publication PMC3486926 (Journal of the American Chemical Society, 2012).

The assay concerns the target LmbR (C-His6-LmbR) (Streptomyces lincolnensis, UniProt Q54372). The experiment in a line: HPLC with charged aerosol detection, ESI-MS of product. The assay is classed as biochemical. As to conditions: C5 acceptor, 10 mM; co-substrate F6P 10 mM.

`O=P(O)(O)OC[C@H]1OC(O)[C@H](O)[C@@H]1O` (stereo partly drawn) [8a, D-ribose 5-phosphate]: the “HPLC with charged aerosol detection, ESI-MS of product” value was “LmbR can accept both R5P (8a) and X5P (8b) as the C5 substrate”.

In the case of `O=P(O)(O)OC[C@H]1OC(O)[C@H](O)[C@H]1O` (stereo partly drawn) [8b, D-xylose 5-phosphate], the “HPLC with charged aerosol detection, ESI-MS of product” value is “LmbR can accept both R5P (8a) and X5P (8b) as the C5 substrate”.
